Measured values as given in patent publication US20240317775A1, “H4 Antagonist Compounds” (HEPTARES THERAPEUTICS LIMITED, priority 2020, published 2024).

Key:
Format in all cases: cell-based
hERG = hERG (Homo sapiens, UniProt Q12809); test: hERG single-concentration assay (QPatch automated patch clamp, CHO cells, 30 μM); settings: CHO cells stably expressing hERG
Text: Series resistance (4-15 MΩ) was compensated by >80%.

human H4 receptor [1] = biological target: T1, human H4 receptor (Homo sapiens, UniProt Q9H3N8); test: H4 Antagonist Functional cAMP Gi Assay; settings: HEKf cells expressing human H4 receptor; functional antagonist pKb by Cheng-Prusoff vs histamine; read-out: Human H4 cAMP fpKb (converted)
T1 construct: expressed in transfected cells; host or cells: HEKf cells infected with baculovirus
Protocol: HEKf cells were infected overnight using baculovirus expressing the human H4 receptor, then centrifuged at 1,200 rpm for 5 min, frozen in cell freezing medium (Sigma) and stored at −150° C. On the day of assay, the cells were thawed and resuspended in HBSS with 500 nM IBMX to achieve a density of 1,500 cells/well. H4 ligands were prepared in DMSO and stamped by LabCyte ECHO acoustic dispensing at 25 nL in low volume plates. 10 μL/well cells were plated in the presence of 1 μM forskolin, subjected to centrifugation at 1,200 rpm for 1 min and incubated for 30 min prior to addition of Cisbio cAMP detection reagents to a total volume 20 μL/well. […] Following detection reagent addition and shaking at room temperature for 60 min, cAMP accumulation was measured using HTRF on a PheraStar plate reader. EC50 values were generated using a 4-parameter logistical fit equation to quantify agonist potencies. Functional antagonist affinity values were generated using the Cheng-Prusoff equation to calculate a pKb value using the antagonist assay data.

human H4 receptor [2] = biological target: T1, human H4 receptor; test: H4 Antagonist Functional Dynamic Mass Redistribution Assay; settings: HEKf cells expressing human H4 receptor; functional antagonist pKb by Cheng-Prusoff vs histamine EC80; read-out: Human H4 DMR fpKb (converted)
Protocol: HEKf cells were infected using baculovirus expressing the human H4 receptor, plated into fibronectin-coated EPIC plates at a density of 10,000 cells/well and incubated overnight at 37° C. The medium on cells was changed to 30 μL HBSS with 20 mM HEPES per well and 30 nL DMSO were added per well by LabCyte ECHO acoustic dispensing. Following 2 h equilibration at room temperature, 30 nL of H4 ligands prepared in DMSO were stamped by LabCyte ECHO acoustic dispensing into seeded EPIC plates and cellular dynamic mass redistribution was monitored using a Corning EPIC plate reader. Following 45 min measurement, 30 nL/well of histamine EC80 was added and monitored to obtain antagonist assay data. Maximum baseline-corrected responses in pm were used to generate concentration response curves. EC50 values were generated using a 4-parameter logistical fit equation to quantify agonist potencies. Functional antagonist affinity values were generated using the Cheng-Prusoff equation to calculate a pKb value using the antagonist assay data.

Sequence of hERG (Q12809 whole entry): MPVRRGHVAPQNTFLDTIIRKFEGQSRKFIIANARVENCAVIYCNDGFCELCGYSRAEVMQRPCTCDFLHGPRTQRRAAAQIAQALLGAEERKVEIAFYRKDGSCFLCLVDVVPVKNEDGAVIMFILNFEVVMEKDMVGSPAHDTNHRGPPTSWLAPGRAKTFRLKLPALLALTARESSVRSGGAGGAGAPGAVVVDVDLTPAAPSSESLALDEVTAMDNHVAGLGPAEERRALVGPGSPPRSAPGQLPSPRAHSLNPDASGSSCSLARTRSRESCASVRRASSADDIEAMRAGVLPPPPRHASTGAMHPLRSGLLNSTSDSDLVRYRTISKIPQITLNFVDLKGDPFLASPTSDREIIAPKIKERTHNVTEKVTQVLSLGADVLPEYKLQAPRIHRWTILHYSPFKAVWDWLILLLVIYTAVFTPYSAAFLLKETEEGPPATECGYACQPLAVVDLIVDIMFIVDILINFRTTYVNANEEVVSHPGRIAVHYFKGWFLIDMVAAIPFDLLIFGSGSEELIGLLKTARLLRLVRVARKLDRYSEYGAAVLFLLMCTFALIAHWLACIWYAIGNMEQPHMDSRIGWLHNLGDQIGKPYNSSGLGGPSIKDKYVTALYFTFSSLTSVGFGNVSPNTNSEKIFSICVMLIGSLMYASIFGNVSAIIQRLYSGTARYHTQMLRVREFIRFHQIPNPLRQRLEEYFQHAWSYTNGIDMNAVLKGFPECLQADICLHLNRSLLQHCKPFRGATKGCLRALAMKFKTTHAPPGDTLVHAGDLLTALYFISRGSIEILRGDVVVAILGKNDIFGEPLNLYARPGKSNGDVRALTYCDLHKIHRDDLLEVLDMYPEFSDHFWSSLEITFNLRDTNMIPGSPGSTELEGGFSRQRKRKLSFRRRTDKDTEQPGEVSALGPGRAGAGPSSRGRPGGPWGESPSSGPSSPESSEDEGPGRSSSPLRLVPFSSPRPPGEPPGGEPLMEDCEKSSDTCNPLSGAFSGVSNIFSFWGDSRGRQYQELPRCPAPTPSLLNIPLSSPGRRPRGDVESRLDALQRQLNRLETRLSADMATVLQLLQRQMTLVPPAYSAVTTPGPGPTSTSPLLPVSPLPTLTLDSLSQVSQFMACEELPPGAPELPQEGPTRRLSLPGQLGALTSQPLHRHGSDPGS

Kb (human H4 receptor [1]) [nM]	Kb (human H4 receptor [2]) [nM]	Compound	inhibition at 30 µM (hERG) [%]
501	–	CN[C@@H]1CCN(c2nc(N)nc3c2OCCN3)C1 [Example 1-1, (R)-4-(3-(Methylamino)pyrrolidin-1-yl)-7,8-dihydro-6H-pyrimido[5,4-b][1,4]oxazin-2-amine]	25
1	–	CC[C@@H]1COc2c(nc(N)nc2N2CC[C@@H](NC)C2)N1 [Example 1-3, (R)-7-Ethyl-4-((R)-3-(methylamino)pyrrolidin-1-yl)-7,8-dihydro-6H-pyrimido[5,4-b][1,4]oxazin-2-amine]	18
25.1	–	CN[C@@H]1CCN(c2nc(N)nc3c2OC[C@H](C(C)C)N3)C1 [Example 1-5, (S)-7-Isopropyl-4-((R)-3-(methylamino)pyrrolidin-1-yl)-7,8-dihydro-6H-pyrimido[5,4-b][1,4]oxazin-2-amine]	68
10	–	CN[C@@H]1CCN(c2nc(N)nc3c2OCC(C(F)(F)F)N3)C1 (stereo partly drawn) [Example 1-8, 4-((R)-3-(Methylamino)pyrrolidin-1-yl)-7-(trifluoromethyl)-7,8-dihydro-6H-pyrimido[5,4-b][1,4]oxazin-2-amine]	19
10	–	CN[C@@H]1CCN(c2nc(N)nc3c2OC[C@@H](COC)N3)C1 [Example 1-9, (R)-7-(Methoxymethyl)-4-((R)-3-(methylamino)pyrrolidin-1-yl)-7,8-dihydro-6H-pyrimido[5,4-b][1,4]oxazin-2-amine]	12
6.31	–	CN[C@@H]1CCN(c2nc(N)nc3c2OC[C@@H]([C@@H](C)OC)N3)C1 [Example 1-10, (S)-7-((R)-1-Methoxyethyl)-4-((R)-3-(methylamino)pyrrolidin-1-yl)-7,8-dihydro-6H-pyrimido[5,4-b][1,4]oxazin-2-amine]	12
2	–	CN[C@@H]1CCN(c2nc(N)nc3c2OC[C@@H](C(C)(C)OC)N3)C1 [Example 1-12, (S)-7-(2-Methoxypropan-2-yl)-4-((R)-3-(methylamino)pyrrolidin-1-yl)-7,8-dihydro-6H-pyrimido[5,4-b][1,4]oxazin-2-amine]	8.3
6.31	–	CN[C@@H]1CCN(c2nc(N)nc3c2OCC(C)(C)N3)C1 [Example 1-14, (R)-7,7-Dimethyl-4-(3-(methylamino)pyrrolidin-1-yl)-7,8-dihydro-6H-pyrimido[5,4-b][1,4]oxazin-2-amine]	11
398	–	CN[C@@H]1CCN(c2nc(N)nc3c2OC(C)CN3)C1 (stereo partly drawn) [Example 1-15, 6-Methyl-4-((R)-3-(methylamino)pyrrolidin-1-yl)-7,8-dihydro-6H-pyrimido[5,4-b][1,4]oxazin-2-amine]	1.5
12.6	–	CN[C@@H]1CCN(c2nc(N)nc3c2OCC2CCCN32)C1 (stereo partly drawn) [Example 1-21, 4-((R)-3-(Methylamino)pyrrolidin-1-yl)-6a,7,8,9-tetrahydro-6H-pyrimido[5,4-b]pyrrolo[1,2-d][1,4]oxazin-2-amine]	8.5
251	–	CN[C@@H]1CCN(c2nc(N)nc3c2OC[C@@]2(C)CCCN32)C1 [Example 1-22, (R)-6a-Methyl-4-((R)-3-(methylamino)pyrrolidin-1-yl)-6a,7,8,9-tetrahydro-6H-pyrimido[5,4-b]pyrrolo[1,2-d][1,4]oxazin-2-amine]	45
10	–	Nc1nc2c(c(N3CC[C@@H](N)C3)n1)OCC(C(F)(F)F)N2 (stereo partly drawn) [Example 2-3, 4-((R)-3-Aminopyrrolidin-1-yl)-7-(trifluoromethyl)-7,8-dihydro-6H-pyrimido[5,4-b][1,4]oxazin-2-amine]	28
12.6	–	CNC1CN(c2nc(N)nc3c2OC[C@@H]([C@@H](C)OC)N3)C1 [Example 3-4, (S)-7-((R)-1-Methoxyethyl)-4-(3-(methylamino)azetidin-1-yl)-7,8-dihydro-6H-pyrimido[5,4-b][1,4]oxazin-2-amine]	12
3.16	–	CC(C)[C@@H]1COc2c(nc(N)nc2N2CCN(C)CC2)N1 [Example 5-1, (R)-7-Isopropyl-4-(4-methylpiperazin-1-yl)-7,8-dihydro-6H-pyrimido[5,4-b][1,4]oxazin-2-amine]	44
3.98	–	CC(C)[C@@H]1COc2c(nc(N)nc2N2CCNCC2)N1 [Example 6-1, (R)-7-Isopropyl-4-(piperazin-1-yl)-7,8-dihydro-6H-pyrimido[5,4-b][1,4]oxazin-2-amine]	13
0.631	–	CN[C@@H]1CCN(c2ncnc3c2OC[C@@H](C(C)C)N3)C1 [Example 7-1, (R)-1-((R)-7-Isopropyl-7,8-dihydro-6H-pyrimido[5,4-b][1,4]oxazin-4-yl)-N-methylpyrrolidin-3-amine]	31
316	–	CN[C@@H]1CCN(c2ncnc3c2OCC(COC)N3)C1 (stereo partly drawn) [Example 7-3, (3R)-1-(7-(Methoxymethyl)-7,8-dihydro-6H-pyrimido[5,4-b][1,4]oxazin-4-yl)-N-methylpyrrolidin-3-amine]	48
5.01	–	CC(C)[C@@H]1COc2c(ncnc2N2CC[C@@H](N)C2)N1 [Example 8-1, (R)-1-((R)-7-Isopropyl-7,8-dihydro-6H-pyrimido[5,4-b][1,4]oxazin-4-yl)pyrrolidin-3-amine]	21
3.98	–	CNC1CN(c2ncnc3c2OC[C@@H](C(C)C)N3)C1 [Example 9-1, (R)-1-(7-Isopropyl-7,8-dihydro-6H-pyrimido[5,4-b][1,4]oxazin-4-yl)-N-methylazetidin-3-amine]	18
–	20	Nc1nc2c(c(N3CC[C@@H](N)C3)n1)OCC1CCCC1N2 (stereo partly drawn) [Example 17-2, 4-[(3R)-3-aminopyrrolidin-1-yl]-6a, 7,8,9,9a, 10-hexahydro-6H-cyclopenta[e]pyrimido[5,4-b][1,4]oxazepin-2-amine]	–
–	2	CN[C@@H]1CCN(c2nc(N)nc3c2OCC2(CCC2)N3)C1 [Example 17-4, 4′-[(3R)-3-(methylamino)pyrrolidin-1-yl]-6′H,8′H-spiro[cyclobutane-1,7′-pyrimido[5,4-b][1,4]oxazin]-2′-amine]	–
–	200	CN[C@@H]1CCN(c2nc(N)nc3c2OCC(C)(C)CN3)C1 [Example 17-5, 7,7-dimethyl-4-[(3R)-3-(methylamino)pyrrolidin-1-yl]-6,7,8,9-tetrahydropyrimido[5,4-b][1,4]oxazepin-2-amine]	–
–	10	CC[C@@H]1CCOc2c(nc(N)nc2N2CC(NC)C2)N1 [Example 17-6, 8-ethyl-4-[3-(methylamino)azetidin-1-yl]-6,7,8,9-tetrahydropyrimido[5,4-b][1,4]oxazepin-2-amine]	–
–	10	CC[C@@H]1CCOc2c(nc(N)nc2N2CC[C@@H](N)C2)N1 [Example 17-7, 4-[(3R)-3-aminopyrrolidin-1-yl]-8-ethyl-6,7,8,9-tetrahydropyrimido[5,4-b][1,4]oxazepin-2-amine]	–
–	39.8	CCC1(C)CCOc2c(ncnc2N2CC[C@@H](NC)C2)N1 (stereo partly drawn) [Example 17-9, (3R)-1-(8-ethyl-8-methyl-6,7,8,9-tetrahydropyrimido[5,4-b][1,4]oxazepin-4-yl)-N-methylpyrrolidin-3-amine]	–
–	10	CCC1(C)CCOc2c(nc(N)nc2N2CC[C@@H](NC)C2)N1 (stereo partly drawn) [Example 17-10, 8-ethyl-8-methyl-4-[(3R)-3-(methylamino)pyrrolidin-1-yl]-6,7,8,9-tetrahydropyrimido[5,4-b][1,4]oxazepin-2-amine]	–
–	7.94	CN[C@@H]1CCN(c2nc(N)nc3c2OCC2(CCCC2)N3)C1 [Example 17-11, 4′-[(3R)-3-(methylamino)pyrrolidin-1-yl]-6′H,8′H-spiro[cyclopentane-1,7′-pyrimido[5,4-b][1,4]oxazin]-2′-amine]	–
–	7.94	CN[C@@H]1CCN(c2ncnc3c2OCC2(CCCC2)N3)C1 [Example 17-12, (3R)—N-methyl-1-(6′H,8′H-spiro[cyclopentane-1,7′-pyrimido[5,4-b][1,4]oxazin]-4′-yl)pyrrolidin-3-amine]	–
20	–	Cc1cc(C)c2nc(-c3cnc(NCCCC4CCN(C)CC4)nc3C)[nH]c2c1 [Toreforant, reference compound]	89

Compound	Kb (human H4 receptor [1]) [nM]	Kb (human H4 receptor [2]) [nM]	inhibition at 30 µM (hERG) [%]
CC[C@@H]1CCOc2c(nc(N)nc2N2C[C@H]3CCCN[C@H]3C2)N1 [Example 17-8, 8-ethyl-4-[(4aR,7aR)-octahydro-6H-pyrrolo[3,4-b]pyridin-6-yl]-6,7,8,9-tetrahydropyrimido[5,4-b][1,4]oxazepin-2-amine]	–	15.8	–
